Biological target: T1, KRas G12C (Homo sapiens, UniProt P01116, G12C)
T1 construct: NCI-H358 cells (ATCC CRL-5807) express KRas G12C
Assay: Inhibition of KRas G12C-dependent cell growth: Phospho-ERK in NCI-H358 cells
Assay type: cell-based
Conditions: NCI-H358 cells expressing KRas G12C; Phospho-ERK (Thr202/Tyr204) normalized to GAPDH; 3 hours compound; 4 parameter fit
In short: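 Phospho-ERK read-out in KRas G12C-expressing NCI-H358 cells after 3 h compound treatment (final DMSO 0.5%), by in-cell infrared immunodetection. Signal normalized to GAPDH and to DMSO controls. 4-parameter curve fit gave IC50.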

T1 sequence (P01116 1-188 isoform P01116-2 G12C): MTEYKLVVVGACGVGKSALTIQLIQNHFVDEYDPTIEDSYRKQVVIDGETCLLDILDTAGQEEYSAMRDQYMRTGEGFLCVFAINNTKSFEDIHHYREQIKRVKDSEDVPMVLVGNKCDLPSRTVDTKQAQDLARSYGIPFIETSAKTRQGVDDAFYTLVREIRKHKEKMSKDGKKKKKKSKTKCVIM

Row | SMILES | IC50
1 | C=C(F)C(=O)N1CCN(c2nc(OC[C@@H]3CCCN3C)nc3c(O)c(-c4cccc5cccc(C)c45)ncc23)C[C@@H]1CC#N [Example 211, 2-((S)-1-(2-fluoroacryloyl)-4-(8-hydroxy-7-(8-methylnaphthalen-1-yl)-2-(((S)-1-methylpyrrolidin-2-yl)methoxy)pyrido[4,3-d]pyrimidin-4-yl)piperazin-2-yl)acetonitrile] | 0.002 µM
2 | C#Cc1cccc2cccc(-c3ncc4c(N5CCN(C(=O)C(=C)F)[C@@H](CC#N)C5)nc(OC[C@@H]5CCCN5C)nc4c3F)c12 [Example 212, 2-((S)-4-(7-(8-ethynylnaphthalen-1-yl)-8-fluoro-2-(((S)-1-methylpyrrolidin-2-yl)methoxy)pyrido[4,3-d]pyrimidin-4-yl)-1-(2-fluoroacryloyl)piperazin-2-yl)acetonitrile] | 0.007 µM
3 | C#Cc1cccc2cccc(-c3ncc4c(N5CCN(C(=O)C=C)CC5)nc(OC[C@@H]5CCCN5C)nc4c3F)c12 [Example 213, (S)-1-(4-(7-(8-ethynylnaphthalen-1-yl)-8-fluoro-2-((1-methylpyrrolidin-2-yl)methoxy)pyrido[4,3-d]pyrimidin-4-yl)piperazin-1-yl)prop-2-en-1-one] | 0.062 µM
4 | C#Cc1cccc2cccc(-c3ncc4c(N5CCN(C(=O)C=C)CC5)ncnc4c3F)c12 [Example 214, 1-(4-(7-(8-ethynylnaphthalen-1-yl)-8-fluoropyrido[4,3-d]pyrimidin-4-yl)piperazin-1-yl)prop-2-en-1-one] | 2.11 µM
5 | C#Cc1cccc2cc(O)cc(-c3ncc4c(N5CCN(C(=O)C=C)CC5)ncnc4c3F)c12 [Example 215, 1-(4-(7-(8-ethynyl-3-hydroxynaphthalen-1-yl)-8-fluoropyrido[4,3-d]pyrimidin-4-yl)piperazin-1-yl)prop-2-en-1-one] | 0.031 µM
6 | C=C(F)C(=O)N1CCN(c2nc(OCC34CCCN3C(CO)CC4)nc3c(F)c(-c4cccc5ccc(F)c(Cl)c45)ncc23)C[C@@H]1CC#N (stereo partly drawn) [Example 216, 2-((2 S)-4-(7-(8-chloro-7-fluoronaphthalen-1-yl)-8-fluoro-2-((3-(hydroxymethyl)tetrahydro-1H-pyrrolizin-7a(5H)-yl)methoxy)pyrido[4,3-d]pyrimidin-4-yl)-1-(2-fluoroacryloyl)piperazin-2-yl)acetonitrile] | 0.121 µM
7 | C=C(F)C(=O)N1CCN(c2nc(OCC3CCC4(CO)CCCN34)nc3c(F)c(-c4cccc5ccc(F)c(Cl)c45)ncc23)C[C@@H]1CC#N (stereo partly drawn) [Example 217, 2-((2S)-4-(7-(8-chloro-7-fluoronaphthalen-1-yl)-8-fluoro-2-((7a-(hydroxymethyl)hexahydro-1H-pyrrolizin-3-yl)methoxy)pyrido[4,3-d]pyrimidin-4-yl)-1-(2-fluoroacryloyl)piperazin-2-yl)acetonitrile] | 0.011 µM
8 | C=CC(=O)N1CCN(c2ncnc3c(F)c(-c4cc(O)cc5ccccc45)ncc23)CC1 [Example 218, 1-(4-(8-fluoro-7-(3-hydroxynaphthalen-1-yl)pyrido[4,3-d]pyrimidin-4-yl)piperazin-1-yl)prop-2-en-1-one] | 0.711 µM
9 | C=CC(=O)N1CCN(c2nc(C3CC3)nc3c(F)c(-c4cccc5ccc(F)c(Cl)c45)ncc23)C[C@@H]1CC#N [Example 219, (S)-2-(1-acryloyl-4-(7-(8-chloro-7-fluoronaphthalen-1-yl)-2-cyclopropyl-8-fluoropyrido[4,3-d]pyrimidin-4-yl)piperazin-2-yl)acetonitrile] | 0.538 µM
10 | C=CC(=O)N1CCN(c2ncnc3c(F)c(-c4cc(O)cc5ccccc45)ncc23)C[C@@H]1CC#N [Example 220, (S)-2-(1-acryloyl-4-(8-fluoro-7-(3-hydroxynaphthalen-1-yl)pyrido[4,3-d]pyrimidin-4-yl)piperazin-2-yl)acetonitrile] | 0.022 µM
11 | O=C(/C=C/CF)N1CC[C@@H]2[C@H]1CN2c1ncnc2c(F)c(-c3cccc4ccc(F)c(Cl)c34)ncc12 [Example 221] | 1.93 µM
12 | C=CC(=O)N1CCN(c2ncnc3c(F)c(-c4ccccc4C(C)C)ncc23)CC1 [Example 222] | 10 µM
13 | C=CC(=O)N1CCN(c2ncnc3c(F)c(-c4cccc5ccccc45)ncc23)CC1 [Example 223] | 10 µM
14 | C=CC(=O)N1CCN(c2ncnc3c(F)c(-c4ccccc4C4CC4)ncc23)CC1 [Example 224] | 10 µM
15 | C=CC(=O)N1CCN(c2ncnc3c(F)c(-c4c(O)ccc5ccccc45)ncc23)CC1 [Example 225] | 4.93 µM
16 | C=CC(=O)N1CC[C@@H]2[C@H]1CN2c1nc(OCC23CCCN2CCC3)nc2c(F)c(-c3cccc4ccc(F)c(Cl)c34)ncc12 [Example 227] | 0.005 µM
17 | C=CC(=O)N1C[C@@H]2[C@H]1CCN2c1nc(OC[C@@H]2CCCN2C)nc2c(F)c(-c3cccc4ccc(F)c(Cl)c34)ncc12 [Example 228] | 0.23 µM
18 | C=C(F)C(=O)N1CCN(c2nc(OC[C@@]34CCCN3C[C@H](F)C4)nc3c(F)c(-c4cccc5ccc(F)c(Cl)c45)ncc23)C[C@@H]1CC#N [Example 229] | 0.001 µM
19 | C=C(F)C(=O)N1CCN(c2nc(OCCNC(=O)C(C)C)nc3c(F)c(-c4cccc5ccc(F)c(Cl)c45)ncc23)C[C@@H]1CC#N [Example 230] | 1.85 µM
20 | C=CC(=O)N1C[C@@H]2[C@H]1CCN2c1nc(C)nc2c(F)c(-c3cccc4ccc(F)c(Cl)c34)ncc12 [Example 231] | 4.28 µM
21 | C=CC(=O)N1C[C@H]2[C@@H]1CCN2c1ncnc2c(F)c(-c3cccc4ccc(F)c(Cl)c34)ncc12 [Example 232] | 10 µM
22 | C=CC(=O)N1CCCC12CCN(c1ncnc3c(F)c(-c4cccc5ccc(F)c(Cl)c45)ncc13)C2 (stereo not drawn) [Example 233] | 10 µM
23 | C=CC(=O)N1CCN(c2ncnc3c(F)c(-c4cccc5ccc(F)c(Cl)c45)ncc23)CC12CC2 [Example 234] | 10 µM
24 | C=CC(=O)N1CCC12CCN(c1ncnc3c(F)c(-c4cccc5ccc(F)c(Cl)c45)ncc13)C2 (stereo not drawn) [Example 235] | 10 µM
25 | C=CC(=O)N1CCCC12CN(c1ncnc3c(F)c(-c4cccc5ccc(F)c(Cl)c45)ncc13)C2 [Example 236] | 10 µM
26 | C=CC(=O)N1CCN(c2nc(C(F)F)nc3c(F)c(-c4cccc5ccc(F)c(Cl)c45)ncc23)C[C@@H]1CC#N [Example 237] | 0.23 µM
27 | C=CC(=O)N1CC[C@@H]2[C@H]1CN2c1nc(C)nc2c(F)c(-c3cccc4ccc(F)c(Cl)c34)ncc12 [Example 238] | 0.379 µM
28 | C=CC(=O)N1CC[C@@H]2[C@H]1CN2c1nc(OC[C@@H]2CCCN2C)nc2c(F)c(-c3cccc4ccc(F)c(Cl)c34)ncc12 [Example 239] | 0.005 µM

The next lines start with the values.

Row | IC50 | SMILES
29 | 10 µM | C=C(F)C(=O)N1CCN(c2nc(O[C@@H]3CO[C@H]4[C@@H]3OC[C@H]4O)nc3c(F)c(-c4cccc5ccc(F)c(Cl)c45)ncc23)C[C@@H]1CC#N [Example 240]
30 | 0.111 µM | C=CC(=O)N1CCN(c2ncnc3c(F)c(-c4cccc(Cl)c4C4CC4)ncc23)C[C@@H]1CC#N [Example 241]
31 | 0.187 µM | C=CC(=O)N1CCN(c2ncnc3c(F)c(-c4c(Cl)c(C)cc5[nH]ncc45)ncc23)C[C@@H]1CC#N [Example 242]
32 | 1.2 µM | C=CC(=O)N1CCN(c2ncnc3c(F)c(-c4c(N)c(Cl)cc(Cl)c4F)ncc23)C[C@@H]1CC#N [Example 243]
33 | 0.088 µM | C=C(F)C(=O)N1CCN(c2nc(OC[C@@H]3CC4CCN3C4)nc3c(F)c(-c4cccc5ccc(F)c(Cl)c45)ncc23)C[C@@H]1CC#N (stereo partly drawn) [Example 244]
34 | 4.04 µM | C#Cc1cccc2cccc(-c3ncc4c(N5CC[C@@H]6[C@H]5CN6C(=O)C=C)ncnc4c3F)c12 [Example 245, 1-((1R,5R)-2-(7-(8-ethynylnaphthalen-1-yl)-8-fluoropyrido[4,3-d]pyrimidin-4-yl)-2,6-diazabicyclo[3.2.0]heptan-6-yl)prop-2-en-1-one]
35 | 6.47 µM | C=CC(=O)N1CCC12CN(c1ncnc3c(F)c(-c4cccc5ccc(F)c(Cl)c45)ncc13)C2 [Example 246, 1-(6-(7-(8-chloro-7-fluoronaphthalen-1-yl)-8-fluoropyrido[4,3-d]pyrimidin-4-yl)-1,6-diazaspiro[3.3]heptan-1-yl)prop-2-en-1-one]
36 | 0.105 µM | C#Cc1cccc2cccc(-c3ncc4c(N5C[C@@H]6[C@H]5CCN6C(=O)C=C)ncnc4c3F)c12 [Example 247, 1-((1R,5R)-6-(7-(8-ethynylnaphthalen-1-yl)-8-fluoropyrido[4,3-d]pyrimidin-4-yl)-2,6-diazabicyclo[3.2.0]heptan-2-yl)prop-2-en-1-one]
37 | 1.25 µM | C=CC(=O)N1CCN(c2ncnc3c(F)c(-c4cc(F)cc5ccccc45)ncc23)C[C@@H]1CC#N [Example 249]
38 | 0.091 µM | C=CC(=O)N1CCN(c2ncnc3c(F)c(-c4c(C)c(Cl)cc5[nH]ncc45)ncc23)C[C@@H]1CC#N [Example 250]
39 | 0.799 µM | C=CC(=O)N1CC[C@@H]2[C@H]1CN2c1ncnc2c(F)c(-c3cncc4cccc(Cl)c34)ncc12 [Example 251]
40 | 0.029 µM | C=CC(=O)N1CC[C@@H]2[C@H]1CN2c1nc(OC[C@@H]2[C@@H]3C[C@@H]3CN2C)nc2c(F)c(-c3cccc4ccc(F)c(Cl)c34)ncc12 [Example 252]
41 | 0.035 µM | C=CC(=O)N1CC[C@@H]2[C@H]1CN2c1nc(OC[C@@H]2[C@H]3C[C@H]3CN2C)nc2c(F)c(-c3cccc4ccc(F)c(Cl)c34)ncc12 [Example 253]
42 | 2.16 µM | C=CC(=O)N1CC[C@@H]2[C@H]1CN2c1ncnc2cc(-c3cccc4ccc(F)c(Cl)c34)ncc12 [Example 254]
43 | 10 µM | C=CC(=O)N1CCN(c2ncnc3c(F)c(-c4cc(Cl)cc5ccccc45)ncc23)CC1 [Example 255]
44 | 10 µM | C=CC(=O)N1CCN(c2ncnc3c(F)c(-c4cc(C#N)cc5ccccc45)ncc23)CC1 [Example 256]
45 | 10 µM | C=CC(=O)N1CCN(c2ncnc3c(F)c(-c4cccc5cc(Cl)ccc45)ncc23)CC1 [Example 257]
